Experimental findings from patent EP0195316A1, “Quinolonecarboxylic acid derivatives” (KYORIN PHARMACEUTICAL CO., LTD., priority 1985, dated 1986) are described below.

The subject of one data set is Campylobacter jejuni. The experiment in a line: MIC, in vitro antibacterial activity (clinical isolates). Particulars: No. of strains 20. In kind it is cell-based.
A short description of data set [1]: Absorption and metabolism in dogs (HPLC). In kind it is in vivo, beagle dogs. How it is done:
A 2 mg dose of the present compound was administered to beagle dogs orally or intravenously, and the serum levels were measured by HPLC (High-performance liquid chromatography).

In data set [2] the test system is nalidixic acid-resistant Salmonella typhimurium TA98 strain (nal^r). Kind of data set: Mutagenicity, reverse mutation assay. The source says: As for antibacterial agents, assessment of mutagenicity using bacteria is somewhat difficult because of their activity on the test bacteria.
Data set [3] deals with Bacillus subtilis PCI 219. The experiment in a line: MIC, in vitro antibacterial activity (standard strains). In kind it is cell-based. Particulars: PCI219; Bacillus subtilis PCI 219, 10^6 cells/ml, Gram +.
Data set [4] is described as follows: in vivo. Particulars: mouse, iv.
For the next data set, the system named is E. coli ML 4707. Kind of data set: In vivo antibacterial activity against systemic infections in mice. Particulars: Escherichia coli, ML4707; E. coli ML 4707 systemic infection (i.p.), male ICR mice, oral administration an hour after infection; read-out: ED50. How it is done:
(§1) The infections were produced by intraperitoneal injection of suspension of the bacterial cells. The compounds were administered orally at an hour after the injection. Five male ICR mice were used for each dosage. […] The efficacy of the present compound are shown in Table 4 in comparison with those of the reference compounds.

For the next data set, the system named is P. aeruginosa IID 1210. Described as above. Particulars: Pseudomonas aeruginosa, IID1210; P. aeruginosa IID 1210 systemic infection (i.p.), male ICR mice, oral administration an hour after infection; read-out: ED50. As for the experimental part: as §1
The test system of the next data set is S. pneumoniae S-4288. The description is as above. Particulars: Streptococcus pneumoniae, S4288; S. pneumoniae S-4288 systemic infection (i.p.), male ICR mice, oral administration an hour after infection; read-out: ED50. As for the experimental part: as §1
The next data set concerns S. aureus Smith. Described as above. Particulars: Staphylococcus aureus; S. aureus Smith systemic infection (i.p.), male ICR mice, oral administration an hour after infection; read-out: ED50. How it is done: as §1
The nature of data set [5]: in vivo. Particulars: rat, po, 10 mg/kg.
Another data set is described as follows: Subacute toxicity in dog. In kind it is in vivo. Particulars: beagle dogs, oral, 20 mg/kg/day for 8 days then 50 mg/kg/day for 7 days. As for the experimental part:
Subacute toxicity study of the present compound was carried out in beagledogs (10 weeks old, n=3). To animals 20 mg/kg/day of the present compound for 8 days and after that 50 mg/kg/day for 7 days was administered orally.

Data set [6] is described as follows: Repeated oral administration to dog (reference compound). In kind it is in vivo.

Converted amounts (≈) assume the structure as drawn. Marks after values point to notes of the source that are not given here.

As a reminder, the MIC is the lowest concentration that inhibits growth of the organism. One may read the LD50 as the dose expected to kill half of the subjects tested. A lower LD50 goes with greater toxicity. By ED50 is commonly meant the midpoint of the dose-response relation. For `NC1CCN(c2c(F)cc3c(=O)c(C(=O)O)cn(C4CC4)c3c2Cl)C1` (stereo not drawn) [Example 25, 7-(3-Amino-l-pyrrolidinyl)-8-chloro-l-cyclopropyl-6-fluoro-1,4-dihydro-4-oxo-3-quinolinecarboxylic acid], the minimum inhibitory concentration (MIC) against Campylobacter jejuni came to 0.05 µg/mL (≈ 0.137 µM); in data set [3], 0.025 µg/mL. Besides, the urinary metabolites result in [1] (animals (dogs section)) was “may be hardly metabolized”. Also, the “Serum levels by oral route versus intravenous route” value in data set [1] (beagle dogs, 2 mg dose, HPLC) is on record as “almost equal to those by intravenous route”. The “His^+ revertants per plate” value in data set [2] (0.005 µg/plate, S9-mix +) is given as 60; in [2] (0.005 µg/plate, S9-mix -) it was 28; in [2] (0.01 µg/plate, S9-mix +) it was 48; in data set [2] (0.01 µg/plate, S9-mix -), 29; in [2] (0.05 µg/plate, S9-mix +), 39*; in data set [2] (0.05 µg/plate, S9-mix -), 26. Moreover, the “His^+ revertants per plate” value in data set [2] (0.1 µg/plate, S9-mix +) is recorded as 6*; in [2] (0.1 µg/plate, S9-mix -), 16*; in data set [2] (0.5 µg/plate, S9-mix +), 0*; in data set [2] (0.5 µg/plate, S9-mix -) it was 0*. Also, the “His revertant colonies compared with the solvent control” value in data set [2] (within measurable concentration, with and without the drug metabolic activation) is listed as “no increment of His revertant colonies”. In the data set “in vivo [4]”, this compound registered an LD50 of 242 mg/kg. Also, the ED50 is 0.9 mg/kg with E. coli ML 4707, 2.9 mg/kg in the data set with P. aeruginosa IID 1210, 13 mg/kg in the data set on S. pneumoniae S-4288 and 2 mg/kg in the data set with S. aureus Smith. In addition, the dose excreted at 24 h in the data set “in vivo [5]” (Excretion rate (% of dose) Bile) was 13.4%; in “in vivo [5]” (Excretion rate (% of dose) Urine), 21.7%. In “Subacute toxicity in dog”, the “changes in body weight and general conditions” value is “No remarkable changes in body weight and general conditions”. The “hematological examination and serum biochemical analysis” value in the data set “Subacute toxicity in dog” was “no abnormality with regard to hematological examination and serum biochemical analysis”.

As to `CC1CN(c2c(F)cc3c(=O)c(C(=O)O)cn(C4CC4)c3c2Cl)CCN1` (stereo not shown) [Ref.2, 8-Chloro-1-cyclopropyl-6-fluoro-1,4-dihydro-7-(3-methyl-1-piperazinyl)-4-oxo-3-quinolinecarboxylic acid], in the data set on Campylobacter jejuni, the MIC is 0.2 µg/mL (≈ 0.527 µM). In addition, the MIC in data set [3] is 0.025 µg/mL. Also, in data set [6], the “GPT and TTT (hepatoxicity)” value was “marked elevation of GPT and decrease of TTT”; the “side effect on central nervous system” value was “strong vomiting and clonic convulsion”.
